Where “and” joins values, the source holds several entries; their conditions need not be identical. Equal values may be shown once. Read-outs that look alike come from different tables or passages of the source.
Experiment: Plasma pharmacokinetics, Parkinson's disease patients, once daily for 14 days
Format: in vivo, human
Conditions: PD patients; for AUC(0-t) / AUC / half-life / Cmax / Tmax: human; for AUC(0-t): read-out: AUC0-24 Mean
Description: Of these, 44 subjects completed the study. An additional 10 subjects were enrolled in the open label part of the study, of these, one subject was discontinued due to an AE of vomiting.
Safety population was comprised of 48 subjects (not including those in the open label cohorts) and PK population was comprised of 36 subjects from double blind part and 10 subjects from open label part of the study. No subjects were discontinued from the study due to protocol deviation.
The PK analysis was performed on the PK population and safety analysis was performed on this population as per the protocol described before.
Study NCT02970019 was a multi-center safety and tolerability study of vodobatinib in 60 subjects with Parkinson's Disease (diagnosed with PD according to the Brain Bank criteria of the United Kingdom Parkinson's Disease Society) who were randomized to receive placebo or various daily doses of vodobatinib for 14 days in a parallel assignment design with quadruple masking (participant, care provider, investigator, and outcomes assessor.) In study NCT02970019, consecutive cohorts of up to eight subjects received once-daily doses of 6, 12, 18, 24, 48, 96, 192, or 384 mg of study drug for 14 days, with six subjects in each cohort on vodobatinib and two subjects in each cohort on placebo. An alternating panel design was used such that subjects in the 6 and 18 mg cohorts were the same, and subjects in the 12 and 24 mg cohorts were the same, thus yielding 48 total individuals enrolled in the eight cohorts. There was a wash-out period of 14 days between each were studied in sequential ascending dose cohorts. In parallel to the double-blind cohorts, up to four subjects per dose cohort were enrolled in an open-label study of vodobatinib to receive 24, 48 or 96 mg once-daily doses of for 14 days. These subjects underwent lumbar puncture to collect CSF on Day 1, and 2-3 h after the last morning dose on Day 14. PK blood draws (for both double-blind and open label) were collected at pre-dose (˜30 min) and at 0.5, 1, 2, 4, 8, 12 and 24 h post-dose on Days 1 and 14.
Vodobatinib levels in plasma and CSF were determined using a fully validated LC-MS/MS assay with lower limits of quantitation (LLOQ) of 2.5 ng/mL and 0.05 ng/mL, respectively. PK analyses were performed using standard non-compartmental analysis with Phoenix® WinNonlin® software Version 6.4 to estimate the PK parameters Cmax, Tmax, AUCtau and Css. Descriptive statistics were used to characterize vodobatinib concentrations and PK parameters in plasma and CSF. Statistical calculations were performed with SAS software (Version 9.4, SAS Institute, Cary, North Carolina, USA).

## Cc1ccc(C(=O)NNC(=O)c2c(C)cccc2Cl)cc1C#Cc1cnc2ccccc2c1 [N′-(2-chloro-6-methylbenzoyl)-4-methyl-3-[2-(3-quinolyl)ethynyl]-benzohydrazide]
6 mg
  Max Conc Geo. Mean: 138.72 ng/mL
  Max Conc Mean: 182 ng/mL and 181.67 ng/mL
  Max Conc Median: 133.50 ng/mL
12 mg
  Max Conc Geo. Mean: 270.17 ng/mL
  Max Conc Mean: 301.00 ng/mL
  Max Conc Median: 242.50 ng/mL
18 mg
  Max Conc Geo. Mean: 300.12 ng/mL
  Max Conc Mean: 308.50 ng/mL
  Max Conc Median: 310.00 ng/mL
24 mg
  Max Conc Geo. Mean: 677.41 ng/mL
  Max Conc Mean: 715.25 ng/mL
  Max Conc Median: 657.00 ng/mL
48 mg
  Max Conc Geo. Mean: 930.30 ng/mL
  Max Conc Mean: 1110.44 ng/mL
  Max Conc Median: 844.00 ng/mL
96 mg
  Max Conc Geo. Mean: 2298.86 ng/mL
  Max Conc Mean: 2802.50 ng/mL
  Max Conc Median: 2350.00 ng/mL
192 mg
  Max Conc Geo. Mean: 2561.39 ng/mL
  Max Conc Mean: 3233.80 ng/mL
  Max Conc Median: 2580.00 ng/mL
384 mg
  Max Conc Geo. Mean: 4198.52 ng/mL
  Max Conc Mean: 4512 ng/mL and 4512.00 ng/mL
  Max Conc Median: 5320.00 ng/mL
6 mg, Day 14, plasma
  AUC(0-t): 1250 ng·h/mL
6 mg, read-out: AUC Over Dosing Interval Geo. Mean
  AUC: 1090 ng·h/mL
6 mg, read-out: AUC Over Dosing Interval Mean
  AUC: 1250 ng·h/mL
6 mg, read-out: AUC Over Dosing Interval Median
  AUC: 1040 ng·h/mL
6 mg, read-out: AUC Over Dosing Interval Min, Max
  AUC: 470 to 2360 ng·h/mL
6 mg, read-out: Half-Life Lambda Z Geo. Mean (converted)
  half-life: 11.1 h
6 mg, read-out: Half-Life Lambda Z Mean (converted)
  half-life: 11.1 h
6 mg, read-out: Half-Life Lambda Z Median (converted)
  half-life: 11.1 h
6 mg, read-out: Half-Life Lambda Z Min, Max (converted)
  half-life: 11.1 h
12 mg, read-out: AUC Over Dosing Interval Geo. Mean
  AUC: 2710 ng·h/mL
12 mg, read-out: AUC Over Dosing Interval Mean
  AUC: 3250 ng·h/mL
12 mg, read-out: AUC Over Dosing Interval Median
  AUC: 2530 ng·h/mL
12 mg, read-out: AUC Over Dosing Interval Min, Max
  AUC: 1440 to 8240 ng·h/mL
18 mg, read-out: AUC Over Dosing Interval Geo. Mean
  AUC: 2860 ng·h/mL
18 mg, read-out: AUC Over Dosing Interval Mean
  AUC: 3370 ng·h/mL
18 mg, read-out: AUC Over Dosing Interval Median
  AUC: 4160 ng·h/mL
18 mg, read-out: AUC Over Dosing Interval Min, Max
  AUC: 908 to 4260 ng·h/mL
18 mg, read-out: Half-Life Lambda Z Mean (converted)
  half-life: 13.5 h
18 mg, read-out: Half-Life Lambda Z Median (converted)
  half-life: 13.5 h
18 mg, read-out: Half-Life Lambda Z Min, Max (converted)
  half-life: 13.5 h
24 mg, read-out: AUC Over Dosing Interval Geo. Mean
  AUC: 5250 ng·h/mL
24 mg, read-out: AUC Over Dosing Interval Mean
  AUC: 5720 ng·h/mL
24 mg, read-out: AUC Over Dosing Interval Median
  AUC: 6640 ng·h/mL
24 mg, read-out: AUC Over Dosing Interval Min, Max
  AUC: 2460 to 8080 ng·h/mL
24 mg, read-out: Half-Life Lambda Z Geo. Mean (converted)
  half-life: 10.5 h
24 mg, read-out: Half-Life Lambda Z Mean (converted)
  half-life: 10.6 h
24 mg, read-out: Half-Life Lambda Z Median (converted)
  half-life: 10.6 h
24 mg, read-out: Half-Life Lambda Z Min, Max (converted)
  half-life: 8.9 to 12.4 h
48 mg, read-out: AUC Over Dosing Interval Geo. Mean
  AUC: 7010 ng·h/mL
48 mg, read-out: AUC Over Dosing Interval Mean
  AUC: 7910 ng·h/mL
48 mg, read-out: AUC Over Dosing Interval Median
  AUC: 8670 ng·h/mL
48 mg, read-out: AUC Over Dosing Interval Min, Max
  AUC: 2910 to 14200 ng·h/mL
48 mg, read-out: Half-Life Lambda Z Geo. Mean (converted)
  half-life: 16.6 h
48 mg, read-out: Half-Life Lambda Z Mean (converted)
  half-life: 19.6 h
48 mg, read-out: Half-Life Lambda Z Median (converted)
  half-life: 11.3 h
48 mg, read-out: Half-Life Lambda Z Min, Max (converted)
  half-life: 11.2 to 36.3 h
96 mg, read-out: AUC Over Dosing Interval Geo. Mean
  AUC: 15100 ng·h/mL
96 mg, read-out: AUC Over Dosing Interval Mean
  AUC: 17100 ng·h/mL
96 mg, read-out: AUC Over Dosing Interval Median
  AUC: 13900 ng·h/mL
96 mg, read-out: AUC Over Dosing Interval Min, Max
  AUC: 6870 to 38700 ng·h/mL
96 mg, read-out: Half-Life Lambda Z Geo. Mean (converted)
  half-life: 13.2 h
96 mg, read-out: Half-Life Lambda Z Mean (converted)
  half-life: 15.7 h
96 mg, read-out: Half-Life Lambda Z Median (converted)
  half-life: 15.5 h
96 mg, read-out: Half-Life Lambda Z Min, Max (converted)
  half-life: 5.7 to 26.1 h
192 mg, read-out: AUC Over Dosing Interval Geo. Mean
  AUC: 27600 ng·h/mL
192 mg, read-out: AUC Over Dosing Interval Mean
  AUC: 33800 ng·h/mL
192 mg, read-out: AUC Over Dosing Interval Median
  AUC: 24800 ng·h/mL
192 mg, read-out: AUC Over Dosing Interval Min, Max
  AUC: 13800 to 82700 ng·h/mL
384 mg, Day 14, plasma
  AUC(0-t): 43800 ng·h/mL
384 mg, read-out: AUC Over Dosing Interval Geo. Mean
  AUC: 40400 ng·h/mL
384 mg, read-out: AUC Over Dosing Interval Mean
  AUC: 43800 ng·h/mL
384 mg, read-out: AUC Over Dosing Interval Median
  AUC: 44500 ng·h/mL
384 mg, read-out: AUC Over Dosing Interval Min, Max
  AUC: 18600 to 66700 ng·h/mL
oral, 6 mg, Day 1, plasma
  Cmax: 164 ng/mL
  AUC(0-t): 794 ng·h/mL
oral, 6 mg, Day 1, plasma, read-out: Tmax median
  Tmax: 2 h
oral, 6 mg, Day 14, plasma
  Cmax: 182 ng/mL
oral, 6 mg, Day 14, plasma, read-out: Tmax median (range)
  Tmax: 2 h
oral, 12 mg, Day 1, plasma
  Cmax: 255 ng/mL
  AUC(0-t): 2040 ng·h/mL
oral, 12 mg, Day 1, plasma, read-out: Tmax median
  Tmax: 2 h
oral, 12 mg, Day 14, plasma
  Cmax: 301 ng/mL
  AUC(0-t): 3250 ng·h/mL
oral, 12 mg, Day 14, plasma, read-out: Tmax median (range)
  Tmax: 2 h
oral, 18 mg, Day 1, plasma
  Cmax: 410 ng/mL
  AUC(0-t): 2730 ng·h/mL
oral, 18 mg, Day 1, plasma, read-out: Tmax median
  Tmax: 2 h
oral, 18 mg, Day 14, plasma
  Cmax: 309 ng/mL
  AUC(0-t): 3370 ng·h/mL
oral, 18 mg, Day 14, plasma, read-out: Tmax median (range)
  Tmax: 3 h
oral, 24 mg, Day 1, plasma
  Cmax: 385 ng/mL
  AUC(0-t): 2690 ng·h/mL
oral, 24 mg, Day 1, plasma, read-out: Tmax median
  Tmax: 4 h
oral, 24 mg, Day 14, plasma
  Cmax: 715 ng/mL
  AUC(0-t): 5720 ng·h/mL
oral, 24 mg, Day 14, plasma, read-out: Tmax median (range)
  Tmax: 2 h
oral, 48 mg, Day 1, plasma
  Cmax: 964 ng/mL
  AUC(0-t): 5310 ng·h/mL
oral, 48 mg, Day 1, plasma, read-out: Tmax median
  Tmax: 4 h
oral, 48 mg, Day 14, plasma
  Cmax: 1110 ng/mL
  AUC(0-t): 7910 ng·h/mL
oral, 48 mg, Day 14, plasma, read-out: Tmax median (range)
  Tmax: 2 h
oral, 96 mg, Day 1, plasma
  Cmax: 1360 ng/mL
  AUC(0-t): 10200 ng·h/mL
oral, 96 mg, Day 1, plasma, read-out: Tmax median
  Tmax: 4 h
oral, 96 mg, Day 14, plasma
  Cmax: 2800 ng/mL
  AUC(0-t): 17100 ng·h/mL
oral, 96 mg, Day 14, plasma, read-out: Tmax median (range)
  Tmax: 2 h
oral, 192 mg, Day 1, plasma
  Cmax: 1530 ng/mL
  AUC(0-t): 18600 ng·h/mL
oral, 192 mg, Day 1, plasma, read-out: Tmax median
  Tmax: 2 h
oral, 192 mg, Day 14, plasma
  Cmax: 3230 ng/mL
  AUC(0-t): 33800 ng·h/mL
oral, 192 mg, Day 14, plasma, read-out: Tmax median (range)
  Tmax: 1 h
oral, 384 mg, Day 1, plasma
  Cmax: 3020 ng/mL
  AUC(0-t): 29900 ng·h/mL
oral, 384 mg, Day 1, plasma, read-out: Tmax median
  Tmax: 4.1 h
oral, 384 mg, Day 14, plasma
  Cmax: 4510 ng/mL
  AUC(0-t): 43500 ng·h/mL
oral, 384 mg, Day 14, plasma, read-out: Tmax median (range)
  Tmax: 1 h
